Results taken from patent US20190015467A1, “AGENT FOR PREVENTING OR AMELIORATING UNEVEN SKIN TONE” (KAO CORPORATION, priority 2017, published 2019).

Columns and labels:
[1] = system: keratinocytes (neonatal foreskin); assay: Autophagy-activating action: LC3-II protein in keratinocytes by Western blotting; assay type: cell-based, human; conditions: 48 hours culture, same toosendanin concentration in both media, control solvent (ethanol)
[2] = system: skin at the elbow site of AA; assay: Organ culture of AA elbow skin with Torin 1: immunohistochemical analyses of autophagy-related, keratinization and proliferation markers; assay type: cell-based, human; conditions: Torin 1 1 μM, tissue culture 5 days
Experimental: (§1) The technique of immunohistochemical analyses will be described. The sections were immersed in acetone or a 4% PFA/PBS solution for 10 minutes to be fixed. The fixed sections were washed with PBS-T (0.05% Tween-20/PBS) for 5 minutes 3 times in total and were blocked with a 1% BSA/PBS solution for 30 minutes. Subsequently, after the sections were subjected to overnight treatment at 4° C. with a primary antibody and were washed with PBS for 5 minutes 3 times in total, a secondary antibody (Jackson ImmunoResearch, 1:100 or 1:200) fluorescent labeled with FITC, RR-X, or Cy3 was added dropwise thereto, followed by treatment at 37° C. for 30 minutes. Thereafter, the sections were washed with PBS-T for 5 minutes 3 times in total and with PBS for 5 minutes once, mounted by aqueous encapsulant containing a nuclear-staining agent (H-1200: Vector Laboratories). Refer to Table 1 for the type of primary antibody, the tissue fixation conditions, and the concentration used.
The produced preparations were subjected to tissue observation and photographing using an inverted microscope (AxioVision, manufactured by Carl Zeiss Vision International GmbH) or a confocal laser microscope (LSM710, manufactured by Carl Zeiss Vision International GmbH). The captured images were analyzed using an image analysis software, and the expression levels of Pmel17, which is a marker of melanocyte growth and activation, cell proliferation marker Ki67, Filaggrin (FLG), Loricrin (LOR), and Transglutaminase 1 (TGM1), which are keratinization-related factors, were quantitated. Further, using RGB Profile Plot, which is an image analysis software, the fluorescence intensity distribution in the skin depth direction was investigated. The image analysis software used was “Image J” (available from imagej.nih.gov/ij/).
From skin at the elbow site of four AA women, skin tissues were collected through punch biopsy by a dermatologist. The collected tissues were halved with a scalpel, and the tissues were cultured for 5 days in the presence or absence of mTORC1 inhibitor, Torin 1 (Cayman Chemical, #10997) to a final concentration of 1 μM. In the tissue culture, a culture medium obtained by adding 10 v/v % Fetal Bovine Serum (FBS) and antibiotics (Antibiotic-Antimycotic) to Advanced-DMEM was used (both were from Life Technologies). After the completion of culture, frozen samples were rapidly produced, and immunohistochemical analyses were performed by the same procedure as in Example 1 (2) using their sections. Refer to Table 3 for the type of primary antibody, the tissue fixation conditions, and the concentration used. Further, melanin was visualized by Fontana-Masson staining, and the epidermal stratum corneum thickness and the melanin deposition area were calculated using an image analysis software (Image J).

[3] = system: cultured keratinocytes derived from human neonatal foreskin; assay: Gene expression by quantitative PCR in Torin 1-treated cultured keratinocytes; assay type: cell-based; conditions: 24 hours culture, ANOVA, Dunnett test p<0.05
Experimental: Torin 1 was added to cultured keratinocytes derived from human neonatal foreskin, and the mixture was cultured for 24 hours in an environment of 37° C. and 5% CO2. For the cell culture, a culture medium obtained by adding a predetermined growth additive (Humedia KG2, manufactured by KURABO INDUSTRIES LTD.) to Epilife culture medium (Life Technologies) was used. RNA was extracted from the keratinocytes, and the gene expression was analyzed by quantitative PCR using a Taqman probe (Life Technologies).

mTORC1 = assay: Organ culture of AA elbow skin with Torin 1: immunohistochemical analysis of mTOR phosphorylation; assay type: cell-based, human; conditions: Torin 1 1 μM, tissue culture 5 days; paired t-test p<0.05
Experimental: as §1, with “Thereafter, the sections were washed with PBS-T for 5 minutes 3 times in total and with PBS for 5 minutes once, mounted by aqueous encapsulant containing a nuclear-staining agent (H-1200: Vector Laboratories). Refer to Table 1 for the type of primary antibody, the tissue fixation conditions, and the concentration used.” left out
The produced preparations were subjected to tissue observation and photographing using an inverted microscope (AxioVision, manufactured by Carl Zeiss Vision International GmbH) or a confocal laser microscope (LSM710, manufactured by Carl Zeiss Vision International GmbH). The captured images were analyzed using an image analysis software, and the expression levels of Pmel17, which is a marker of melanocyte growth and activation, cell proliferation marker Ki67, Filaggrin (FLG), Loricrin (LOR), and Transglutaminase 1 (TGM1), which are keratinization-related factors, were quantitated. Further, using RGB Profile Plot, which is an image analysis software, the fluorescence intensity distribution in the skin depth direction was investigated. […]

[4] = system: skin at the elbow site of AA; assay: Organ culture of AA elbow skin with Torin 1: Fontana-Masson melanin staining and image analysis; assay type: cell-based, human; conditions: Torin 1 1 μM, tissue culture 5 days, vs absence of Torin 1; n=4, paired t-test p<0.05
Experimental: Meanwhile, the sections were subjected to melanin staining (Melanin Stain), separately. The sections were immersed in a 4% PFA/PBS solution for 10 minutes to be fixed. The fixed sections were washed with distilled water (DDW) for 5 minutes 3 times in total, and thereafter a Fontana-ammonia silver solution (Muto) was added dropwise thereto, followed by treatment at room temperature for 30 minutes. Then, the sections were washed with DDW for 5 minutes 3 times in total, and a Kernechtrot solution (Muto) was added dropwise thereto, followed by treatment for 3 minutes, for nuclear staining. The excess staining solution was washed away with DDW, followed by dehydration, clearing, and mounting with Malinol (Muto).
From skin at the elbow site of four AA women, skin tissues were collected through punch biopsy by a dermatologist. The collected tissues were halved with a scalpel, and the tissues were cultured for 5 days in the presence or absence of mTORC1 inhibitor, Torin 1 (Cayman Chemical, #10997) to a final concentration of 1 μM. […] Further, melanin was visualized by Fontana-Masson staining, and the epidermal stratum corneum thickness and the melanin deposition area were calculated using an image analysis software (Image J).

Structure (SMILES) | LC3-II protein in the cells [1] | localization of ATG5-ATG12 in the epidermis [2] | localization of ATG16L1 in the epidermis [2] | distribution of Filaggrin (FLG) in the epidermis ([2]; vs untreated skin) | distribution of Loricrin (LOR) in the epidermis ([2]; vs untreated skin) | distribution of Transglutaminase 1 (TGM1) in the epidermis ([2]; vs untreated skin) | proliferating cells (number of Ki67 positive cells) ([2]; vs untreated skin) | LC3 protein ([2]; paired t-test p<0.05) | p62 protein aggregation ([2]; paired t-test p<0.05) | gene expression of Involucrin (IVL) ([3]; depending on the dose) | gene expression of TGM1 ([3]; depending on the dose) | gene expression of SKP2 [3] | phosphorylation of mTOR (p-mTOR to mTOR) (mTORC1) | amount of melanin (melanin deposition area) [4] | epidermal stratum corneum thickness [4]
CC(=O)O[C@@H]1C[C@H](O)[C@@]23CO[C@@H](O)[C@]1(C)[C@@H]2C[C@@H](O)[C@]1(C)[C@@H]3C(=O)[C@H](OC(C)=O)[C@@]2(C)[C@H](c3ccoc3)C[C@H]3O[C@]321 [toosendanin] | LC3-II protein-increasing actions | – | – | – | – | – | – | – | – | – | – | – | – | – | –
CCC(=O)N1CCN(c2ccc(-n3c(=O)ccc4cnc5ccc(-c6cnc7ccccc7c6)cc5c43)cc2C(F)(F)F)CC1 [Torin 1] | – | the localization was normalized | the localization was normalized | restored to be localized by the epidermal granular layer | restored to be localized by the epidermal granular layer | restored to be localized by the epidermal granular layer | a decrease in proliferating cells was confirmed | increased | decreased | statistically significantly increased | statistically significantly increased | statistically significantly reducing | inhibition of phosphorylation of mTOR was observed | statistically significantly decreased | statistically significantly decreased
